For 36 compounds, activity and IC50 results are on record in patent US5955491A, “Method for treating osteoporosis” (Takeda Chemical Industries, Ltd., priority 1993, dated 1999).

Structures are written as SMILES. Peptide text beside a SMILES is read from it. * marks the point of attachment. MeOSuc = COC(=O)CCC(=O)*; Cbz = O=C(OCc1ccccc1)*; Boc = CC(C)(C)OC(=O)*; Bz = O=C(c1ccccc1)*

The test system of test [1] is fetal rat forearm bones (radius and ulna), bone resorption. Put plainly: Bone resorption suppressing action (^45 Ca release from cultured fetal rat forearm bones, method of Raisz). The test is classed as cell-based, Sprague-Dawley rat. The conditions noted are these: 48 h, cultured two days, control = no test compound, mean of five bone fragments, read-out: Bone Resorption Inhibitory Activity [^45 Ca Release Rate (Percent to Control)]; for activity at 10 µg/mL: Concentration of Compound 10 μg/ml; for activity at 10 µM: Concentration of Compound 10 μM. The text has this:
Specifically, one Sprague-Dawley rat, at 18 days of gestation, was given 50 μCi of ^45 Ca (calcium isotope, in CaCl2 solution) by subcutaneous injection. On the following day, the animal was laparotomized and fetal rats aseptically removed. Both forearm bones (radius and ulna) were cut out from the body of each fetus under an anatomical microscope, and connective tissue and cartilages were removed to the maximum possible extent, to prepare bone culture samples. Each bone fragment was pre-cultured at 37° C. for 24 hours in 0.6 ml of BGJb medium (Fitton-Jackson modification, GIBCO Laboratories, United States) prepared by adding bovine serum albumin (final concentration 2 mg/ml), after which it was transferred to the same medium as above but containing each compound (final concentration 10 μg/ml or 10 μM) and cultured for two more days. ^45 Ca radioactivity in the medium and ^45 Ca radioactivity in the bone were then measured, and the percent ratio of ^45 Ca released from the bone to the medium was calculated using the following equation: [formula]
For control, bone fractions from fetuses of the same litter were cultured for two days in the absence of the test compound. The mean q standard deviation for the values from five bone fragments in each group were calculated, and their percent ratios to the control were calculated.

A further test concerns the target T1, human cathepsin L (Homo sapiens, UniProt P07711).
T1 construct: made in house; host or cells: mouse myeloma Sp2/0 cells stably transformed with pTBN-HCLneo (Sp-HCL26); purified from serum-free culture supernatant on CM-Sephadex C-50 and Mono S
Put plainly: Determination of human cathepsin L inhibitory activity (recombinant enzyme, Z-Phe-Arg-NMec substrate). In kind it is biochemical. The following applies: pH 5.5, 30° C., 10 minutes. As for the experimental part:
This fraction was applied to a Mono S column (HR5/5) of an FPLC system (produced by Pharmacia), followed by column washing and human cathepsin L elution in the same manner as above.
Experimental Example 8: Determination of human cathepsin L inhibitory activity
The recombinant human cathepsin L purified in Experimental Example 7 was diluted with a diluent [0.1% Brij 35 (produced by Sigma Chemical Company)] to a concentration of 1 μg/ml. To 1 μl of this enzyme dilution, 46 μl of the diluent, 2 μl of 0.1M DTT and 25 μl of an activator/buffer (340 mM sodium acetate, 60 mM acetic acid, 4 mM disodium EDTA, pH 5.5) were added. To this mixture were added a 1 μl sample, diluted to 10^-2 M with dimethyl sulfoxide (DMSO), and 25 μl of 20 μM Z-Phe-Arg-NMec (enzyme substrate solution), followed by incubation at 30° C. for 10 minutes, after which 100 μl of a reaction stopper (100 mM sodium monochloroacetate, 30 mM sodium acetate, 70 mM acetic acid, pH 4.3) was added. This reaction was carried out on a 96-well fluoroplate (produced by Labo Systems).
After the reaction was stopped, the fluorescence intensity of free aminomethylcoumarin was determined at a wavelength of 450 nm (excitation wavelength=365 nm), using a fluorometer FCA (produced by Baxter). For a control, 1 μl of sample-free DMSO was added instead; the fluorometric value obtained from this control reaction was taken as 100% activity.

T1 sequence (P07711 114-333): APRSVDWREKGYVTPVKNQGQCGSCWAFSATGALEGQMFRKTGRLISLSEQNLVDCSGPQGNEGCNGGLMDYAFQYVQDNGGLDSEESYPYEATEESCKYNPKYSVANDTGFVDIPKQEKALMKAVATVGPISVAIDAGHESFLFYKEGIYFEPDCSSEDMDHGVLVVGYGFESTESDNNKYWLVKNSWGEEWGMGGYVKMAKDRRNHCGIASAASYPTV

Turning to `CC[C@H](C)[C@H](NS(=O)(=O)c1cccc2ccccc12)C(=O)N[C@H](CO)Cc1c[nH]c2ccccc12` [Example 3, N-(1-naphthylsulfonyl)-(L)-isoleucyl-(L)-tryptophanol], the activity at 10 µg/mL in test [1] is 49%.

With `O=C(N[C@H](CO)Cc1c[nH]c2ccccc12)C(Cc1ccccc1)Cc1ccccc1` [Example 26, N-dibenzylacetyl-(L)-tryptophanol], the activity at 10 µM in test [1] was found to be 79%. The same measure, in the same setting: next, `CC(C)[C@H](NC(=O)c1ccccc1)C(=O)N[C@H](CO)Cc1c[nH]c2ccccc12` [Example 38]: 76%; `CC[C@H](C)[C@H](NC(=O)OCc1ccccc1)C(=O)N[C@H](CO)Cc1cn(C(C)(C)C)c2ccccc12` [Example 59]: 67%. Turning to `Cc1ccc(CC(Cc2ccccc2)C(=O)N[C@H](CO)Cc2c[nH]c3ccccc23)cc1` (stereo partly shown) [Example 84], the activity at 10 µM in test [1] was found to be 74%. As for `CC[C@H](C)[C@H](NS(=O)(=O)c1cccc2ccccc12)C(=O)N[C@H](C=O)Cc1c[nH]c2ccccc12` [Example 103, N-(1-naphthylsulfonyl)-(L)-isoleucyl-(L)-tryptophanal], the activity at 10 µg/mL in test [1] amounted to 49%. Usually IC50 stands for the concentration that gives 50% inhibition. `CC[C@H](C)[C@H](NC(=O)OCc1ccccc1)C(=O)N[C@H](C=O)Cc1c[nH]c2ccccc12` [Example 107]: the IC50 on human cathepsin L turned out to be 11 nM. As for `CC[C@H](C)[C@H](NC(=O)OCc1ccccc1)C(=O)N[C@H](C(=O)N[C@H](C=O)Cc1c[nH]c2ccccc12)[C@@H](C)CC` [Example 108, N-(benzyloxycarhonyl)-(L)-isoleucyl-(L)-isoleucyl-(L)-tryptophanal] (Cbz-Ile-Ile-Trp-aldehyde), the half-maximal inhibitory concentration (IC50) on human cathepsin L is 5.4 nM. Further, in test [1], the activity at 10 µg/mL turned out to be 42%. Take `CC[C@H](C)[C@H](NC(=O)OC(C)(C)C)C(=O)N[C@H](C(=O)N[C@H](C=O)Cc1c[nH]c2ccccc12)[C@@H](C)CC` [Example 109] (Boc-Ile-Ile-Trp-aldehyde): the IC50 on human cathepsin L was 10 nM. Also, the activity at 10 µg/mL in test [1] amounted to 38%. On the same counts, the results for `CC[C@H](C)[C@H](NC(=O)[C@@H](NS(=O)(=O)c1cccc2ccccc12)[C@@H](C)CC)C(=O)N[C@H](C=O)Cc1c[nH]c2ccccc12` [Example 110, N-(1-naphthylsulfonyl)-(L)-isoleucyl-(L)-isoleucyl-(L)-tryptophanal] are 16 nM and 46%.

In the case of `CC[C@H](C)[C@H](NC(=O)CCC(=O)OC)C(=O)N[C@H](C(=O)N[C@H](C=O)Cc1c[nH]c2ccccc12)[C@@H](C)CC` [Example 111] (MeOSuc-Ile-Ile-Trp-aldehyde), on human cathepsin L, the IC50 came to 14 nM. The activity at 10 µg/mL in test [1] came out at 32%.

Turning to `CC[C@H](C)[C@H](NC(=O)OCCC12CC3CC(CC(C3)C1)C2)C(=O)N[C@H](C(=O)N[C@H](C=O)Cc1c[nH]c2ccccc12)[C@@H](C)CC` [Example 112], the 50% inhibitory concentration (IC50) at human cathepsin L is 380 nM. The activity at 10 µg/mL in test [1] was determined as 43%.

In the case of `CC[C@H](C)[C@H](NC(=O)NCCC1CCCCC1)C(=O)N[C@H](C=O)Cc1c[nH]c2ccccc12` [Example 115, N-[(2-cyclohexylethyl)carbamoyl]-(L)-isoleucyl-(L)-tryptophanal], the IC50 on human cathepsin L was found to be 48 nM.

As for `CC[C@H](C)[C@H](NC(=O)[C@@H](NS(=O)(=O)c1cccc2ccccc12)[C@@H](C)CC)C(=O)NC(C=O)Cc1cccc2ccccc12` (stereo partly drawn) [Example 118, N-(1naphthylsulfonyl)-(L)-isoleucyl-(L)-isoleucyl-(DL)-(1-naphthyl)alaninal], the half-inhibitory concentration (IC50) at human cathepsin L stood at 220 nM.

With `O=C[C@H](Cc1c[nH]c2ccccc12)NC(=O)C(Cc1ccccc1)Cc1ccccc1` [Example 122, N-dibenzylacetyl-(L)-tryptophanal], on human cathepsin L, the 50% inhibitory concentration (IC50) is 32 nM. The activity at 10 µM in test [1] was 73%.

With `C[C@H](NS(=O)(=O)c1cccc2ccccc12)C(=O)N[C@H](C=O)Cc1c[nH]c2ccccc12` [Example 124], the activity at 10 µM in test [1] worked out at 79%. As to `O=C[C@H](Cc1c[nH]c2ccccc12)NC(=O)[C@H](Cc1ccccc1)NC(=O)c1ccccc1` [Example 128] (Bz-Phe-Trp-aldehyde), the concentration for half-maximal inhibition (IC50) on human cathepsin L was 19 nM. Further, the activity at 10 µM in test [1] is 73%.

Consider `CCCC(Sc1ccccc1)C(=O)N[C@H](C=O)Cc1c[nH]c2ccccc12` (stereo partly shown) [Example 129], for which the IC50 at human cathepsin L amounted to 85 nM. For the compound `CC(C)[C@H](NC(=O)OCc1ccccc1)C(=O)N[C@H](C=O)Cc1c[nH]c2ccccc12` [Example 132] (Cbz-Val-Trp-aldehyde), at human cathepsin L, the IC50 worked out at 0.99 nM. In test [1], the activity at 10 µM was determined as 74%. On to `CC(C)[C@H](NC(=O)c1ccccc1)C(=O)N[C@H](C=O)Cc1c[nH]c2ccccc12` [Example 134] (Bz-Val-Trp-aldehyde), for which, in test [1], the activity at 10 µM stood at 66%. As for `CCCC(CCC)C(=O)N[C@H](C(=O)N[C@H](C=O)Cc1c[nH]c2ccccc12)C(C)C` [Example 135, N-(2-propylpentanoyl)-(L)-valyl-(L)-tryptophanal], at human cathepsin L, the IC50 came to 1 nM. In test [1], the activity at 10 µM is 45%. With `CC(C)C[C@H](NC(=O)c1ccccc1)C(=O)N[C@H](C=O)Cc1c[nH]c2ccccc12` [Example 143], on human cathepsin L, the 50% inhibitory concentration (IC50) was 1.7 nM. `CCCC(CCC)C(=O)N[C@@H](CC(C)C)C(=O)N[C@H](C=O)Cc1c[nH]c2ccccc12` [Example 144]: the IC50 at human cathepsin L was determined as 2.4 nM. Besides, the activity at 10 µM in test [1] is 60%.

Take `CC[C@H](C)[C@H](NC(=O)OC(C)(C)C)C(=O)N[C@H](C=O)Cc1cn(C)c2ccccc12` [Example 150]: at human cathepsin L, the 50% inhibitory concentration (IC50) turned out to be 6.1 nM. Turning to `CC[C@H](C)[C@H](NS(=O)(=O)c1cccc2ccccc12)C(=O)N[C@@H](C)C=O` [Example 153, N-(1-naphthylsulfonyl)-(L)-isoleucylalanal], the activity at 10 µM in test [1] was found to be 74%. Consider `CC[C@H](C)[C@H](NS(=O)(=O)c1cccc2ccccc12)C(=O)N[C@H](C=O)Cc1ccccc1` [Example 154, N-(1-naphthylsulfonyl)-(L)-isoleucyl-(L)-phenylalaninal], for which, at human cathepsin L, the IC50 came to 0.95 nM. Take `CC[C@H](C)[C@H](NC(=O)OCc1ccccc1)C(=O)N[C@H](C=O)Cc1ccc(OC(C)C)cc1` [Example 157]: the activity at 10 µM in test [1] came out at 72%. The same measure, in the same setting: next, `CC[C@H](C)[C@H](NS(=O)(=O)c1cccc2ccccc12)C(=O)N[C@H](C=O)Cc1ccc(O)cc1` [Example 158]: 65%. Turning to `CC[C@@H](C=O)NC(=O)C(Cc1ccccc1)Cc1ccccc1` [Example 167], the half-inhibitory concentration (IC50) at human cathepsin L came to 43 nM. On the same count and under the same terms, next, `CC(C)[C@@H](C=O)NC(=O)C(Cc1ccccc1)Cc1ccccc1` [Example 168]: 26 nM; `CC(C)C[C@H](NS(=O)(=O)c1cccc2ccccc12)C(=O)N[C@@H](Cc1c[nH]c2ccccc12)C(=O)NCC=O` [Example 175]: 19 nM; `CCOP(=O)(Cc1ccc(NC(=O)C(Cc2ccccc2)C(=O)N[C@H](C=O)Cc2c[nH]c3ccccc23)cc1)OCC` (stereo partly shown) [Example 188]: 37 nM.

For `O=C[C@H](Cc1c[nH]c2ccccc12)NC(=O)C(Cc1ccccc1)C(=O)N(Cc1ccccc1)Cc1ccccc1` (stereo partly shown) [Example 190], on human cathepsin L, the IC50 amounted to 55 nM. On the same count and under the same terms, to `O=C[C@H](Cc1c[nH]c2ccccc12)NC(=O)C(Cc1ccccc1)C(=O)NCc1ccccc1` (stereo partly shown) [Example 191] belongs 4.7 nM; to `O=C[C@H](Cc1c[nH]c2ccccc12)NC(=O)C(c1ccccc1)c1ccccc1` [Example 192], 4.2 nM; to `CC[C@H](C)[C@H](NC(=O)c1cc(=O)c2ccccc2o1)C(=O)N[C@H](C=O)Cc1c[nH]c2ccccc12` [Example 193], 3.9 nM.
